Values after ≈ are worked out from the molar mass of the structure shown.
Tests used:
Assay in all cases: In vitro antifungal activity, microbroth dilution MIC
Type in all cases: cell-based
[1] = tested on: Candida albicans A. 10231; details: C. albicans A. 10231, RPMI-1640, 35° C., 4 to 48 hours
In short: (§1)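 Broth microdilution adapted from NCCLS M27, in RPMI-1640 with 0.165 M MOPS, pH 7.0. Yeast or mould inoculum at 2×10^3 CFU/ml was mixed 1:1 with DMSO-derived compound solutions (200 to 0.10 μg/ml before mixing) and incubated at 35 °C for 4 to 48 h. MIC was the concentration showing no growth.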

[2] = tested on: Candida albicans C1-2; details: C. albicans C1-2, RPMI-1640, 35° C., 4 to 48 hours
In short: as §1

[3] = tested on: Candida albicans IFO. 1385; details: 4 to 48 hours; for Minimal inhibitory concentration (MIC): C. albicans IFO. 1385, RPMI-1640, 35° C.
In short: as §1

[4] = tested on: Candida tropicalis A. 13803; details: 4 to 48 hours; for Minimal inhibitory concentration (MIC): C. tropicalis A. 13803, RPMI-1640, 35° C.
In short: as §1

[5] = tested on: Torulopsis glabrata B. 16205; details: 4 to 48 hours; for Minimal inhibitory concentration (MIC): T. glabrata B. 16205, RPMI-1640, 35° C.
In short: as §1

[6] = tested on: Aspergillus niger A. 16404; details: 4 to 48 hours; for Minimal inhibitory concentration (MIC): A. niger A. 16404, RPMI-1640, 35° C.
In short: as §1

[7] = tested on: Trichophyton mentagrophytes A. 9129; details: 4 to 48 hours; for Minimal inhibitory concentration (MIC): T. mentagrophytes A. 9129, RPMI-1640, 35° C.
In short: as §1

[8] = tested on: Candida pseudotropicalis K. 11658; details: 4 to 48 hours; for Minimal inhibitory concentration (MIC): C. pseudotropicalis K. 11658, RPMI-1640, 35° C.
In short: as §1

[9] = tested on: Cryptococcus neoformans B. 42419; details: 4 to 48 hours; for Minimal inhibitory concentration (MIC): Cry. neoformans B. 42419, RPMI-1640, 35° C.
In short: as §1

[10] = tested on: Aspergillus furnigatus B. 19119; details: 4 to 48 hours; for Minimal inhibitory concentration (MIC): A furnigatus B. 19119, RPMI-1640, 35° C.
In short: as §1

[11] = tested on: Candida parapsitosis A. 7330; details: 4 to 48 hours; for Minimal inhibitory concentration (MIC): C. parapsitosis A. 7330, RPMI-1640, 35° C.
In short: as §1

[12] = tested on: Cryptococcus neoformans IFM. 40092; details: 4 to 48 hours; for Minimal inhibitory concentration (MIC): Cry. neoformans IFM. 40092, RPMI-1640, 35° C.
In short: as §1

[13] = tested on: Cryptococcus neoformans A. 34144; details: 4 to 48 hours; for Minimal inhibitory concentration (MIC): Cry. neoformans A. 34144, RPMI-1640, 35° C.
In short: as §1

[14] = tested on: Candida krusei K. 11655; details: 4 to 48 hours; for Minimal inhibitory concentration (MIC): C. krusei K. 11655, RPMI-1640, 35° C.
In short: as §1

[15] = tested on: Trichophyton mentagrophytes B. 32663; details: 4 to 48 hours; for Minimal inhibitory concentration (MIC): T. mentagrophytes B. 32663, RPMI-1640, 35° C.
In short: as §1

[16] = RPMI-1640, 35° C., no growth observed

Row | Minimal inhibitory concentration (MIC) [1] | Minimal inhibitory concentration (MIC) [2] | Minimal inhibitory concentration (MIC) [3] | Minimal inhibitory concentration (MIC) [4] | Minimal inhibitory concentration (MIC) [5] | Minimal inhibitory concentration (MIC) [6] | Minimal inhibitory concentration (MIC) [7] | Minimal inhibitory concentration (MIC) [8] | Minimal inhibitory concentration (MIC) [9] | Minimal inhibitory concentration (MIC) [10] | Minimal inhibitory concentration (MIC) [11] | Minimal inhibitory concentration (MIC) [12] | Minimal inhibitory concentration (MIC) [13] | Minimal inhibitory concentration (MIC) [14] | Minimal inhibitory concentration (MIC) [15] | Structure (SMILES) | further results
1 | 12.5 µg/mL | 12.5 µg/mL | 0.39 µg/mL | 50.0 µg/mL | 3.13 µg/mL | 6.25 µg/mL | 1.56 µg/mL | 50.0 µg/mL | 0.78 µg/mL | 1.56 µg/mL | >100 µg/mL | ≦0.10 μg/ml | 0.78 µg/mL | 100 µg/mL | 0.78 µg/mL | FC(OCC1COC(Cn2ccnc2)(c2ccc(F)cc2F)O1)=C(c1ccccc1)C(F)(F)F (mixture of isomers) [Ex. 52] | –
2 | 12.5 µg/mL (≈ 22.7 µM) | 12.5 µg/mL (≈ 22.7 µM) | 0.78 µg/mL (≈ 1.41 µM) | 12.5 µg/mL (≈ 22.7 µM) | 6.25 µg/mL (≈ 11.3 µM) | 6.25 µg/mL (≈ 11.3 µM) | 3.13 µg/mL (≈ 5.67 µM) | 12.5 µg/mL (≈ 22.7 µM) | 1.56 µg/mL (≈ 2.83 µM) | 6.25 µg/mL (≈ 11.3 µM) | 25.0 µg/mL (≈ 45.3 µM) | 0.78 µg/mL (≈ 1.41 µM) | 1.56 µg/mL (≈ 2.83 µM) | 25.0 µg/mL (≈ 45.3 µM) | 1.56 µg/mL (≈ 2.83 µM) | FC(OCC1COC(Cn2ccnc2)(c2ccc(Cl)cc2Cl)O1)=C(c1ccc(Cl)cc1)C(F)(F)F (stereo not drawn) [Ex. 31] | –
3 | 6.25 µg/mL | 6.25 µg/mL | 0.78 µg/mL | 25.0 µg/mL | 12.5 µg/mL | 100 µg/mL | 12.5 µg/mL | 100 µg/mL | 1.56 µg/mL | 50.0 µg/mL | >100 µg/mL | 0.39 µg/mL | 0.78 µg/mL | >100 µg/mL | 6.25 µg/mL | FC(OCC1COC(Cn2ccnc2)(c2ccc(Cl)cc2Cl)O1)=C(c1cccc(F)c1)C(F)(F)F (mixture of isomers) [Ex. 32] | –
4 | >100 µg/mL | >100 µg/mL | – | – | – | – | – | – | – | – | – | – | – | – | – | FC(OCC1COC(Cn2cncn2)(c2ccc(Cl)cc2Cl)O1)=C(c1ccccc1)C(F)(F)F (mixture of isomers) [Ex. 79] | Minimal inhibitory concentration(MIC), C. albicans IFO. 1385 [3, 16]: >100 µg/mL; Minimal inhibitory concentration(MIC), C. tropicalis A. 13803 [4, 16]: >100 µg/mL; Minimal inhibitory concentration(MIC), T. glabrata B. 16205 [5, 16]: >100 µg/mL; Minimal inhibitory concentration(MIC), A. niger A. 16404 [6, 16]: >100 µg/mL; Minimal inhibitory concentration(MIC), T. mentagrophytes A. 9129 [7, 16]: >100 µg/mL; Minimal inhibitory concentration(MIC), C. pseudotropicalis K. 11658 [8, 16]: >100 µg/mL; Minimal inhibitory concentration(MIC), Cry. neoformans B. 42419 [9, 16]: >100 µg/mL; Minimal inhibitory concentration(MIC), A furnigatus B. 19119 [10, 16]: >100 µg/mL; Minimal inhibitory concentration(MIC), C. parapsitosis A. 7330 [11, 16]: >100 µg/mL; Minimal inhibitory concentration(MIC), Cry. neoformans IFM. 40092 [12, 16]: 1.56 µg/mL; Minimal inhibitory concentration(MIC), Cry. neoformans A. 34144 [13, 16]: >100 µg/mL; Minimal inhibitory concentration(MIC), C. krusei K. 11655 [14, 16]: >100 µg/mL; Minimal inhibitory concentration(MIC), T. mentagrophytes B. 32663 [15, 16]: >100 µg/mL
